The values that follow come from US20240067645A1, “HETEROCYCLIC COMPOUND AS DIACYLGLYCEROL KINASE INHIBITOR AND USE THEREOF” (LG CHEM, LTD., priority 2020, published 2024).

The assay deals with DGKα (Homo sapiens (Human), UniProt P23743). Description: Measurement of inhibitory effect against DGKα enzyme (ADP-Glo). The conditions noted are these: DGKα enzyme, ADP-Glo luminescence, OAG/ATP substrate, 20 min room temperature; read-out: IC50. The class given is biochemical. The protocol:
Experimental Example: Measurement of Inhibitory Effect Against DGKα Enzyme
First, 3×OAG (3 mM)/ATP (0.45 mM) substrate solution was prepared from 1× substrate assay buffer (40 mM MOPS (pH 7.2), 20 mM MgCl2, 1 mM DTT, 0.4 mM CaCl2), 3 mM sodium deoxycholate, 100 mM NaCl, 0.1 mg/mL BSA, 0.12% NP-40), and vortexed thoroughly for 3 minutes to induce detergent-lipid micelle formation. Then, 3×DGKα (7.5 nM) enzyme solution was prepared from 2× enzyme assay buffer (80 mM MOPS (pH 7.2), 2 mM DTT, 200 mM NaCl, 0.2 mg/mL BSA) and vortexed for a short time.
After preparing the above two solutions, a half-area opaque 96-well assay plate was prepared, and 10 μL of 3× diluted compound solution (30 μM to 0 μM) was transferred to each well. Next, 10 μL of 3×DGK enzyme solution was transferred to the same plate, mixed by pipetting, and then 10 μL of 3×OAG/ATP substrate solution was added to the assay plate and mixed well. The plate was incubated at room temperature for 20 minutes for the enzyme reaction. Next, 15 μL of ADP-Glo reagent was added to each well and mixed by pipetting, followed by incubating the plate at room temperature for 40 minutes to deplete the remaining ATPs. After this step, 30 μL of kinase detection reagent was added and mixed, and the plate was incubated at room temperature for an additional 20 minutes and luminescence was measured by Envision to calculate the IC50 value of each compound.
The measurement results are represented in Table 1 (+: IC50>5 μM, ++: 5 μM>IC50>300 nM, +++: IC50<300 nM).

Each structure is given as a SMILES string.

DGKα, sequence (P23743 whole entry, species assumed): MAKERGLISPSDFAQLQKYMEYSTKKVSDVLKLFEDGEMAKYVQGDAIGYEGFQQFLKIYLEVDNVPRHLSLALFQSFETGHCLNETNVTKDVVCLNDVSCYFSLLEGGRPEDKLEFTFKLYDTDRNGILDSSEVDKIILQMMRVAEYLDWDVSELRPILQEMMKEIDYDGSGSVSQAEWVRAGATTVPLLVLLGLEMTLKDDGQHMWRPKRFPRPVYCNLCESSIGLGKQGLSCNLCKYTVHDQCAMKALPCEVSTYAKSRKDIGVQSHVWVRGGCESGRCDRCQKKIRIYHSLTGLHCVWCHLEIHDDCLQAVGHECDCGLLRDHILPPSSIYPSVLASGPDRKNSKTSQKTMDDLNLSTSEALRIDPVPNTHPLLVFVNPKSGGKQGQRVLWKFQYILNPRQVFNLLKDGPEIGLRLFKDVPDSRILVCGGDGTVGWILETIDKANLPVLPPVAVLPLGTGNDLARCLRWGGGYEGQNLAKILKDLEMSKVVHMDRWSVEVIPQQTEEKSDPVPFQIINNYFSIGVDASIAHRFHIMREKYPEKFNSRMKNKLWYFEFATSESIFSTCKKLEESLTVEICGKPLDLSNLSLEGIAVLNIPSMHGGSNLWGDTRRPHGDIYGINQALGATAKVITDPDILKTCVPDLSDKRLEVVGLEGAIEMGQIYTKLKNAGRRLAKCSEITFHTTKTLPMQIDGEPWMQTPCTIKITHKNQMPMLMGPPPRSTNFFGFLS

Regarding `Cn1c(=O)c(=O)n(C2CCN(Cc3ccc(OC(F)(F)F)cc3)CC2)c2nc(C#N)ccc21` [Example 11, 1-methyl-2,3-dioxo-4-(1-(4-(trifluoromethoxy)benzyl)piperidin-4-yl)-1,2,3,4-tetrahydropyrido[2,3-b]pyrazine-6-carbonitrile], the IC50 (in general, the concentration at which inhibition is half-maximal) was 300 to 5000 nM.

As to `Cc1ccc2c(n1)n(C1CCN(Cc3ccc(Oc4ccccc4)cc3)CC1)c(=O)c(=O)n2C` [Example 18, 1,6-dimethyl-4-(1-(4-phenoxybenzyl)piperidin-4-yl)-1,4-dihydropyrido[2,3-b]pyrazine-2,3-dione], the concentration for half-maximal inhibition (IC50) was < 300 nM.

For the molecule `CNC(=O)c1cnc2c(c1)n(C)c(=O)c(=O)n2C1CCN(Cc2ccc(OC(F)(F)F)cc2)CC1` [Example 65, N,1-dimethyl-2,3-dioxo-4-(1-(4-(trifluoromethoxy)benzyl)piperidin-4-yl)-1,2,3,4-tetrahydropyrido[2,3-b]pyrazine-7-carboxamide], the IC50 lay within 300 to 5000 nM.

Take `Cc1ccc2c(n1)n(C1CCN(Cc3ccccc3-c3ccccc3)CC1)c(=O)c(=O)n2C` [Example 10, 4-(1-([1,1′-biphenyl]-2-ylmethyl)piperidin-4-yl)-1,6-dimethyl-1,4-dihydropyrido[2,3-b]pyrazine-2,3-dione]: the IC50 was 300 to 5000 nM.

With `Cn1c(=O)c(=O)n(C2CCN(Cc3ccc(OC(F)(F)F)cc3)CC2(C)C)c2ncc(Cl)cc21` (centres unmarked) [Example 31, 7-chloro-4-(3,3-dimethyl-1-(4-(trifluoromethoxy)benzyl)piperidin-4-yl)-1-methyl-1,4-dihydropyrido[2,3-b]pyrazine-2,3-dione], the IC50 was 300 to 5000 nM.

As for `CN(C)CCNC(=O)c1cnc2c(c1)n(C)c(=O)c(=O)n2C1CCN(Cc2ccc(OC(F)(F)F)cc2)CC1` [Example 63, N-(2-(dimethylamino)ethyl)-1-methyl-2,3-dioxo-4-(1-(4-(trifluoromethoxy)benzyl)piperidin-4-yl)-1,2,3,4-tetrahydropyrido[2,3-b]pyrazine-7-carboxamide], the IC50 is > 5000 nM.

On to `Cn1c(=O)c(=O)n(C2CCN(Cc3ccc(OC(F)(F)F)cc3)CC2)c2ncc(C(=O)O)cc21` [Example 62, 1-methyl-2,3-dioxo-4-(1-(4-(trifluoromethoxy)benzyl)piperidin-4-yl)-1,2,3,4-tetrahydropyrido[2,3-b]pyrazine-7-carboxylic acid], for which the IC50 lay in the range of 300 to 5000 nM.

For the molecule `Cn1c(=O)c(=O)n(C2CCN(C(c3cccc(Cl)c3)c3cccc(Cl)c3)CC2)c2ncc(Cl)cc21` [Example 45, 4-(1-(bis(3-chlorophenyl)methyl)piperidin-4-yl)-7-chloro-1-methyl-1,4-dihydropyrido[2,3-b]pyrazine-2,3-dione], the IC50 was in the range of 300 to 5000 nM.

Take `Cc1ccc2c(n1)n(C1CCN(Cc3cccc(Cl)c3)CC1)c(=O)c(=O)n2C` [Example 13, 4-(1-(3-chlorobenzyl)piperidin-4-yl)-1,6-dimethyl-1,4-dihydropyrido[2,3-b]pyrazine-2,3-dione]: the IC50 was < 300 nM.

Take `Cn1c(=O)c(=O)n(C2CCN(Cc3cccc(Cl)c3)CC2)c2ncccc21` [Example 22, 4-(1-(3-chlorobenzyl)piperidin-4-yl)-1-methyl-1,4-dihydropyrido[2,3-b]pyrazine-2,3-dione]: the IC50 was < 300 nM.

In the case of `COC(=O)c1cnc2c(c1)n(C)c(=O)c(=O)n2C1CCN(Cc2ccc(OC(F)(F)F)cc2)CC1` [Example 60, methyl 1-methyl-2,3-dioxo-4-(1-(4-(trifluoromethoxy)benzyl)piperidin-4-yl)-1,2,3,4-tetrahydropyrido[2,3-b]pyrazine-7-carboxylate], the IC50 was < 300 nM.

For the molecule `Cc1ccc2c(n1)n(C1CCN(Cc3cccc4cnccc34)CC1)c(=O)c(=O)n2C` [Example 20, 4-(1-(isoquinolin-5-ylmethyl)piperidin-4-yl)-1,6-dimethyl-1,4-dihydropyrido[2,3-b]pyrazine-2,3-dione], the IC50 was in the range of 300 to 5000 nM.

For `CC(=O)c1ccc2c(n1)n(C1CCN(Cc3ccc(OC(F)(F)F)cc3)CC1)c(=O)c(=O)n2C` [Example 53, 6-acetyl-1-methyl-4-(1-(4-(trifluoromethoxy)benzyl)piperidin-4-yl)-1,4-dihydropyrido[2,3-b]pyrazine-2,3-dione], the IC50 is 300 to 5000 nM.

On to `CC(C)Oc1ccc2c(n1)n(C1CCN(Cc3ccc(OC(F)(F)F)cc3)CC1)c(=O)c(=O)n2C` [Example 58, 6-isopropoxy-1-methyl-4-(1-(4-(trifluoromethoxy)benzyl)piperidin-4-yl)-1,4-dihydropyrido[2,3-b]pyrazine-2,3-dione], for which the IC50 was > 5000 nM.

On to `Cn1c(=O)c(=O)n(C2CCN(Cc3cccc4nccnc34)CC2)c2ncc(Cl)cc21` [Example 33, 7-chloro-1-methyl-4-(1-(quinoxalin-5-ylmethyl)piperidin-4-yl)-1,4-dihydropyrido[2,3-b]pyrazine-2,3-dione], for which the IC50 is 300 to 5000 nM.

For the molecule `COc1ncccc1CN1CCC(n2c(=O)c(=O)n(C)c3ccc(C)nc32)CC1` [Example 15, 4-(1-((2-methoxypyridin-3-yl)methyl)piperidin-4-yl)-1,6-dimethyl-1,4-dihydropyrido[2,3-b]pyrazine-2,3-dione], the IC50 was > 5000 nM.

For the molecule `Cc1ccc2c(n1)n(C1CCN(Cc3cccc4ccccc34)CC1)c(=O)c(=O)n2C` [Example 5, 1,6-dimethyl-4-(1-(naphthalen-1-ylmethyl)piperidin-4-yl)-1,4-dihydropyrido[2,3-b]pyrazine-2,3-dione], the IC50 is < 300 nM.

For `Cn1c(=O)c(=O)n(C2CCN(Cc3cccc(C(F)(F)F)c3)CC2)c2ncc(Cl)cc21` [Example 30, 7-chloro-1-methyl-4-(1-(3-(trifluoromethyl)benzyl)piperidin-4-yl)-1,4-dihydropyrido[2,3-b]pyrazine-2,3-dione], the IC50 was < 300 nM.

In the case of `Cc1ccc2c(n1)n(C1CCN(Cc3cc4ccccc4nc3Cl)CC1)c(=O)c(=O)n2C` [Example 6, 4-(1-((2-chloroquinolin-3-yl)methyl)piperidin-4-yl)-1,6-dimethyl-1,4-dihydropyrido[2,3-b]pyrazine-2,3-dione], the IC50 was 300 to 5000 nM.

As for `CC(=O)c1cnc2c(c1)n(C)c(=O)c(=O)n2C1CCN(Cc2ccc(OC(F)(F)F)cc2)CC1` [Example 48, 7-acetyl-1-methyl-4-(1-(4-(trifluoromethoxy)benzyl)piperidin-4-yl)-1,4-dihydropyrido[2,3-b]pyrazine-2,3-dione], the IC50 was < 300 nM.

As to `Cn1c(=O)c(=O)n(C2CCN(Cc3ccc(OC(F)(F)F)cc3)CC2)c2ncccc21` [Example 1, methyl-4-(1-(4-(trifluoromethoxy)benzyl)piperidin-4-yl)-1,4-dihydropyrido[2,3-b]pyrazine-2,3-dione], the IC50 was < 300 nM.

As for `Cc1ccc2c(n1)n(C1CCN(Cc3ccccc3)CC1)c(=O)c(=O)n2C` [Example 23, 4-(1-benzylpiperidin-4-yl)-1,6-dimethyl-1,4-dihydropyrido[2,3-b]pyrazine-2,3-dione], the IC50 fell in the range of 300 to 5000 nM.

For the molecule `CC(C)Cn1c(=O)c(=O)n(C2CCN(Cc3ccc(OC(F)(F)F)cc3)CC2)c2ncccc21` [Example 4, isobutyl-4-(1-(4-(trifluoromethoxy)benzyl)piperidin-4-yl)-1,4-dihydropyrido[2,3-b]pyrazine-2,3-dione], the half-maximal inhibitory concentration (IC50) is > 5000 nM.
